Test results as given in PubChem BioAssay (NCI).
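Test compounds were applied to cells in 96-well plates for 48 hours at 5 doses. TGI denotes the concentration required for complete inhibition of growth.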

Assays:
Experiment in all cases: NCI-60 cell line screen, 48 h
MDA-MB-231 breast = test system: MDA-MB-231 breast
A549 NSCLC = test system: A549 NSCLC
MALME-3M melanoma = test system: MALME-3M melanoma
MDA-MB-435 = test system: MDA-MB-435
OVCAR-4 ovarian = test system: OVCAR-4 ovarian
M14 melanoma = test system: M14 melanoma
CAKI-1 renal = test system: CAKI-1 renal
OVCAR-8 ovarian = test system: OVCAR-8 ovarian
SK-MEL-2 melanoma = test system: SK-MEL-2 melanoma
NCI-H460 lung = test system: NCI-H460 lung
HOP-62 NSCLC = test system: HOP-62 NSCLC
A498 renal = test system: A498 renal
UACC-257 melanoma = test system: UACC-257 melanoma
EKVX NSCLC = test system: EKVX NSCLC
HCT-116 colon = test system: HCT-116 colon
HS 578T breast = test system: HS 578T breast
OVCAR-3 ovarian = test system: OVCAR-3 ovarian
LOX IMVI melanoma = test system: LOX IMVI melanoma
SNB-19 CNS = test system: SNB-19 CNS
KM12 colon = test system: KM12 colon
SN12C renal = test system: SN12C renal
TK-10 renal = test system: TK-10 renal
T-47D breast = test system: T-47D breast
SK-MEL-5 melanoma = test system: SK-MEL-5 melanoma
SF-539 CNS = test system: SF-539 CNS
UO-31 renal = test system: UO-31 renal
BT-549 breast = test system: BT-549 breast
DU-145 prostate = test system: DU-145 prostate
IGROV1 ovarian = test system: IGROV1 ovarian
COLO 205 colon = test system: COLO 205 colon
SW-620 colon = test system: SW-620 colon
U251 CNS = test system: U251 CNS
MDA-N = test system: MDA-N
HCT-15 colon = test system: HCT-15 colon
SK-MEL-28 melanoma = test system: SK-MEL-28 melanoma
NCI-H23 lung = test system: NCI-H23 lung
HOP-92 NSCLC = test system: HOP-92 NSCLC
MCF7 breast = test system: MCF7 breast
SF-268 CNS = test system: SF-268 CNS
SF-295 CNS = test system: SF-295 CNS
RPMI-8226 leukemia = test system: RPMI-8226 leukemia
786-0 renal = test system: 786-0 renal
OVCAR-5 ovarian = test system: OVCAR-5 ovarian
CCRF-CEM leukemia = test system: CCRF-CEM leukemia
RXF 393 renal = test system: RXF 393 renal
SR leukemia = test system: SR leukemia
NCI-H226 lung = test system: NCI-H226 lung
UACC-62 melanoma = test system: UACC-62 melanoma
HT29 colon = test system: HT29 colon
PC-3 prostate = test system: PC-3 prostate
NCI/ADR-RES ovarian = test system: NCI/ADR-RES ovarian
K-562 leukemia = test system: K-562 leukemia
HL-60(TB) leukemia = test system: HL-60(TB) leukemia
NCI-H522 lung = test system: NCI-H522 lung
ACHN renal = test system: ACHN renal
MOLT-4 leukemia = test system: MOLT-4 leukemia
SNB-75 CNS = test system: SNB-75 CNS
HCC-2998 colon = test system: HCC-2998 colon
SK-OV-3 ovarian = test system: SK-OV-3 ovarian

Q: How did the TGI (MDA-MB-231 breast) turn out when `CCOC(=O)CNC(=O)C(CSCC1C(=O)Nc2ccccc21)NC(=O)CCC(N)C(=O)OCC` (stereo not drawn) was run?
A: 3.48 µM

Q: What about the TGI (A549 NSCLC) of the same molecule?
A: 6.63 µM

Q: And the TGI (MALME-3M melanoma)?
A: 4.89 µM

Q: What about the TGI (MDA-MB-435) of the same molecule?
A: 3.19 µM

Q: And the TGI (OVCAR-4 ovarian)?
A: 9.11 µM

Q: And the TGI (M14 melanoma)?
A: 4.01 µM

Q: And the TGI (CAKI-1 renal)?
A: 2.4 µM

Q: What about the TGI (OVCAR-8 ovarian) of the same molecule?
A: 11.4 µM

Q: What about the TGI (SK-MEL-2 melanoma) of the same molecule?
A: 4.51 µM

Q: And the TGI (NCI-H460 lung)?
A: 20.9 µM

Q: And the TGI (HOP-62 NSCLC)?
A: 4.99 µM

Q: What about the TGI (A498 renal) of the same molecule?
A: 8.19 µM

Q: What about the TGI (UACC-257 melanoma) of the same molecule?
A: 14.3 µM

Q: And the TGI (EKVX NSCLC)?
A: 4.47 µM

Q: What about the TGI (HCT-116 colon) of the same molecule?
A: 2.97 µM

Q: And the TGI (HS 578T breast)?
A: 17.6 µM

Q: And the TGI (OVCAR-3 ovarian)?
A: 5.65 µM

Q: And the TGI (LOX IMVI melanoma)?
A: 1.64 µM

Q: What about the TGI (SNB-19 CNS) of the same molecule?
A: 20 µM

Q: And the TGI (KM12 colon)?
A: 8.33 µM

Q: And the TGI (SN12C renal)?
A: 3.64 µM

Q: What about the TGI (TK-10 renal) of the same molecule?
A: 5.14 µM

Q: What about the TGI (T-47D breast) of the same molecule?
A: > 100 µM

Q: What about the TGI (SK-MEL-5 melanoma) of the same molecule?
A: 3.26 µM

Q: What about the TGI (SF-539 CNS) of the same molecule?
A: 0.608 µM

Q: And the TGI (UO-31 renal)?
A: 2.74 µM

Q: And the TGI (BT-549 breast)?
A: 7.14 µM

Q: What about the TGI (DU-145 prostate) of the same molecule?
A: 34.4 µM

Q: And the TGI (IGROV1 ovarian)?
A: 2.83 µM

Q: What about the TGI (COLO 205 colon) of the same molecule?
A: 2.54 µM

Q: What about the TGI (SW-620 colon) of the same molecule?
A: 2.73 µM

Q: What about the TGI (U251 CNS) of the same molecule?
A: 2.73 µM

Q: And the TGI (MDA-N)?
A: 5.01 µM

Q: And the TGI (HCT-15 colon)?
A: 2.53 µM

Q: What about the TGI (SK-MEL-28 melanoma) of the same molecule?
A: 3.59 µM

Q: And the TGI (NCI-H23 lung)?
A: 5.62 µM

Q: And the TGI (HOP-92 NSCLC)?
A: 5.03 µM

Q: And the TGI (MCF7 breast)?
A: 3.46 µM

Q: What about the TGI (SF-268 CNS) of the same molecule?
A: 6.44 µM

Q: And the TGI (SF-295 CNS)?
A: 6.31 µM

Q: What about the TGI (RPMI-8226 leukemia) of the same molecule?
A: 3.09 µM

Q: What about the TGI (786-0 renal) of the same molecule?
A: 4.28 µM

Q: What about the TGI (OVCAR-5 ovarian) of the same molecule?
A: 3.65 µM

Q: What about the TGI (CCRF-CEM leukemia) of the same molecule?
A: 0.79 µM

Q: And the TGI (RXF 393 renal)?
A: 2.72 µM

Q: And the TGI (SR leukemia)?
A: 0.546 µM

Q: What about the TGI (NCI-H226 lung) of the same molecule?
A: 5.44 µM

Q: And the TGI (UACC-62 melanoma)?
A: 2.92 µM

Q: What about the TGI (HT29 colon) of the same molecule?
A: 3.02 µM

Q: And the TGI (PC-3 prostate)?
A: 4.9 µM

Q: What about the TGI (NCI/ADR-RES ovarian) of the same molecule?
A: 3.02 µM

Q: What about the TGI (K-562 leukemia) of the same molecule?
A: 0.948 µM

Q: And the TGI (HL-60(TB) leukemia)?
A: 4.7 µM

Q: What about the TGI (NCI-H522 lung) of the same molecule?
A: 3.59 µM

Q: And the TGI (ACHN renal)?
A: 3.74 µM

Q: Which results are given for `CCOC(=O)c1c(Sc2ccc([N+](=O)[O-])cc2[N+](=O)[O-])nc2c3ccccc3ccn12`?
A: TGI (MDA-MB-231 breast): > 100 µM; TGI (A549 NSCLC): > 100 µM; TGI (MDA-MB-435): > 100 µM; TGI (OVCAR-4 ovarian): > 100 µM; TGI (M14 melanoma): > 100 µM; TGI (CAKI-1 renal): > 100 µM; TGI (OVCAR-8 ovarian): > 100 µM; TGI (SK-MEL-2 melanoma): > 100 µM; TGI (NCI-H460 lung): > 100 µM; TGI (HOP-62 NSCLC): > 59.4 µM; TGI (A498 renal): > 100 µM; TGI (UACC-257 melanoma): > 100 µM; TGI (MOLT-4 leukemia): > 100 µM; TGI (EKVX NSCLC): > 100 µM; TGI (HCT-116 colon): > 100 µM; TGI (HS 578T breast): > 92.3 µM; TGI (OVCAR-3 ovarian): > 100 µM; TGI (LOX IMVI melanoma): > 100 µM; TGI (SNB-19 CNS): > 100 µM; TGI (KM12 colon): > 100 µM; TGI (SN12C renal): > 100 µM; TGI (TK-10 renal): > 100 µM; TGI (T-47D breast): > 100 µM; TGI (SK-MEL-5 melanoma): > 100 µM; TGI (SF-539 CNS): > 94.8 µM; TGI (UO-31 renal): > 100 µM; TGI (BT-549 breast): > 100 µM; TGI (DU-145 prostate): > 100 µM; TGI (IGROV1 ovarian): > 31.6 µM; TGI (COLO 205 colon): > 100 µM; TGI (SW-620 colon): > 100 µM; TGI (U251 CNS): > 100 µM; TGI (MDA-N): > 100 µM; TGI (HCT-15 colon): > 100 µM; TGI (SK-MEL-28 melanoma): > 100 µM; TGI (NCI-H23 lung): > 100 µM; TGI (HOP-92 NSCLC): 41.3 µM; TGI (SNB-75 CNS): > 100 µM; TGI (MCF7 breast): > 100 µM; TGI (SF-268 CNS): > 100 µM; TGI (SF-295 CNS): > 100 µM; TGI (RPMI-8226 leukemia): > 100 µM; TGI (786-0 renal): > 38.6 µM; TGI (OVCAR-5 ovarian): > 100 µM; TGI (CCRF-CEM leukemia): > 100 µM; TGI (RXF 393 renal): > 92.9 µM; TGI (SR leukemia): > 100 µM; TGI (NCI-H226 lung): > 100 µM; TGI (UACC-62 melanoma): > 65.9 µM; TGI (HT29 colon): > 100 µM; TGI (PC-3 prostate): > 100 µM; TGI (NCI/ADR-RES ovarian): > 100 µM; TGI (HCC-2998 colon): > 100 µM; TGI (K-562 leukemia): > 100 µM; TGI (HL-60(TB) leukemia): > 100 µM; TGI (NCI-H522 lung): > 100 µM; TGI (ACHN renal): > 100 µM; TGI (SK-OV-3 ovarian): 69.7 µM
